Molecules are shown by their SMILES. Calls of active or inactive are those of the source. The calls are words filed in the database; no cut-off is given here.

This assay deals with Mitogen-activated protein kinase; ERK1/ERK2 (Homo sapiens) (UniProt P27361+P28482). Put plainly: Effect on ERK1/2 phosphorylation in human NCI-H446 cells at 0.6 uM in presence of CPT by Western blot method. The assay is classed as cell-based. In general terms: Immunoblotting shows a protein as a band on a membrane.
Sequence of Mitogen-activated protein kinase; ERK1/ERK2 (Homo sapiens) (P27361 whole entry, looked up): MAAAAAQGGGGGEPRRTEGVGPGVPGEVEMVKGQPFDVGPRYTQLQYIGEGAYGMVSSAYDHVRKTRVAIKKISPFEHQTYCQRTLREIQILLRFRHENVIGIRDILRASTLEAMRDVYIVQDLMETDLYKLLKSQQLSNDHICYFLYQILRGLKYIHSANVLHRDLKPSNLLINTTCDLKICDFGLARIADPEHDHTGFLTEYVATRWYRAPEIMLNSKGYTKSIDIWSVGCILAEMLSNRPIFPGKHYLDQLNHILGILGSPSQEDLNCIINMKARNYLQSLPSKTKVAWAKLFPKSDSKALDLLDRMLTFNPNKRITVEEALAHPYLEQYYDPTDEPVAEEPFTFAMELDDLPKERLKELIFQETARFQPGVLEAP
Sequence of Mitogen-activated protein kinase; ERK1/ERK2 (Homo sapiens) (P28482 whole entry, looked up): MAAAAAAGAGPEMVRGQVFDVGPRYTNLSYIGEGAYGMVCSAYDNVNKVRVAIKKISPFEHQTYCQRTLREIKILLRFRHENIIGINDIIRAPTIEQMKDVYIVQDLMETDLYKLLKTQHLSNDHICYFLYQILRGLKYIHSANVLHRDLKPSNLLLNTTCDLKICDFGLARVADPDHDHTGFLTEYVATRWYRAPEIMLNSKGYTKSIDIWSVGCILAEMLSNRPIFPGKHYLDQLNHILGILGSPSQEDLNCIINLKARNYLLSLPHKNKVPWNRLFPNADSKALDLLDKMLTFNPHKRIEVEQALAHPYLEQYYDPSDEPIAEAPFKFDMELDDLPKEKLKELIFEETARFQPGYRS

As for `C[C@@H]1CC[C@@]2(OC1)O[C@H]1C[C@H]3[C@@H]4CC=C5C[C@@H](O[C@@H]6O[C@H](CO)[C@@H](O[C@@H]7O[C@@H](CO)[C@H](O)[C@H]7O)[C@H](O)[C@H]6O[C@@H]6O[C@@H](C)[C@H](O)[C@@H](O)[C@H]6O)CC[C@]5(C)[C@H]4CC[C@]3(C)[C@H]1[C@@H]2C`, the result was Active.

The values above are taken from ChEMBL document CHEMBL4000165, “Chemosensitizing effect of Paris Saponin I on Camptothecin and 10-hydroxycamptothecin in lung cancer cells via p38 MAPK, ERK, and Akt signaling pathways” (Eur J Med Chem, 2017).
